The values below come from patent US20230265099A1, “SIK INHIBITORS AND METHODS OF USE THEREOF” (SOLTEGO, INC., priority 2020, published 2023).

For series [1], the system named is reconstituted melanized human epidermis (NHEKs and NHEMs-MP melanocytes). In words: Melanin content from Fontana-Masson stained sections of reconstituted melanized human epidermis. The format is cell-based. As to conditions: for melanin content (Fontana-Masson stained sections): % relative to DMSO 0.005%. As to the method:
Based on the results of dose determination studies, 0.3 μg/ml, 0.01 μg/ml and 0.0033 μg/ml doses of SLT-008 were selected for further application in a culture medium of reconstituted melanized human epidermis. The pigmentation effect studies were carried out on epidermis reconstituted with NHEKs (Normal human epidermal keratinocytes, Lonza 00192906) isolated from foreskin of 3 neonatal Caucasian donors and NHEMs-MP melanocytes.
The tissues were cultured at the air-liquid interface in Epilife medium (Fisher Scientific, MEPI500CA) containing specific supplements (with among others Human Keratinocytes Growth Factors, Fisher Scientific S0015 or S001K) and antibiotics (Gentamycin, Fisher Scientific, 15710049). They were maintained in a humid atmosphere at 37° C. with 5% CO2.
Melanocytes were co-cultured with reconstructed epidermis and cultivated at the air-liquid interface during 14 days in culture medium in a humid atmosphere at 37° C. with CO2 5%. SLT-008 was applied in the culture medium at 3 concentrations, during 10 days, from day 4 to day 14 after placement at the air/liquid interface (n=6), with 5 medium refreshes (at day 7, 8, 9, 10 and 11). In order to allow pigmentation of the epidermis, the concentration in BPE (bovine pituitary extract) in culture medium was adapted during the treatments. DMSO at 0.005%, used for the compounds solubilization was used as reference control condition. IBMX at 150 μM and forskolin at 3.33 μM were used as pro-pigmentation reference compounds to validate the experiment. An additional DMSO control at 0.05% corresponding to the solvent of the reference compounds was added as well in the experiment.
At the end of treatments (day 14), a morphology analysis was performed. The epidermis pigmentation was quantified after solvable extraction and quantified through Fontana Masson staining of histologic sections. 6 μm sections of epidermis embedded in paraffin were prepared and stained with Fontana Masson reagents. Fontana Masson staining specifically stains melanin within the epidermis. In order to visualize the epidermis in addition to the melanin, a counterstaining with hemalum/eosin was performed as well. Tissue section staining was performed in three series with one set for each test compound. Slides with sections of epidermis treated with DMSO at 0.005% were put in each set for Fontana Masson staining in order to compare the effects of the SLT-008.
Melanin deposition on 6 μm paraffin sections of each epidermis was stained by Fontana-Masson reagents (VWR-VWRK641295, VWRK641311; Klinipath-641215). […]
For the melanin quantification, 3 pictures of each epidermis were taken and analyzed by using the Leica QWin3 software. […]
Melanin content was determined from Fontana-Masson stained sections (% relative to DMSO 0.005%). […]

A further series concerns the target SIK3(h) (Homo sapiens, UniProt Q9Y2K2). Briefly: Salt Induced Kinase inhibition, radiometric [γ-33P]-ATP filter assay, SIK3. The format is biochemical.
The subject of series [2] is melanized reconstructed human epidermis. In words: LDH release assay on melanized reconstructed human epidermis. The format is cell-based. As to the method:
Quantification of lactate dehydrogenase (LDH) release from melanized tissue was performed at mid-treatment and at the end of treatment with the SLT-008 to ensure that the selected doses were not cytotoxic for the melanized reconstructed human epidermis. The release of LDH by the culture model was assessed after 5 and 10 days of treatments with the Cytotoxicity Detection KitPLUS (Roche-04744926001) according to the manufacturer's instructions. Briefly, culture supernatants were collected and mixed with LDH detection reactants in 96-well plates for 30 min before measuring optical density at 490 nm with a reference wavelength of 600 nm using a spectrophotometer (GloMax-Promega). This was performed in triplicates of cultures (n=3). […] The effect of these concentrations was thus studied on the tissue pigmentation (FIG. 5).
For orientation: LDH leaks from cells whose membrane has failed.

In series [3] the test system is Primary human epidermal keratinocytes (hEK) cocultured with human epidermal melanocytes. In words: Topical application on keratinocyte/melanocyte coculture skin model, Fontana Masson staining. The format is cell-based. As to conditions: single topical application. As to the method: Primary human epidermal keratinocytes (hEK) were seeded onto suitable carrier matrices and cocultured with human epidermal melanocytes. SLT-8 was solubilized in PEG/Ethanol/Transcutol® at 0.3 mM, 1 mM and 3 mM and applied topically using a mesh to the surface of the models and removed after 4 hours. Test compounds were applied once daily over a period of 4 days. Untreated models and models treated with the vehicle only served as controls. UV irradiated models were used as positive controls. Fontana Masson staining was conducted to visualize pigmentation effects. Fontana-Masson staining is routinely used to visualize argentaffin substances such as melanin, argentaffin granules and some neurosecretory granules. Melanin is a nonlipid, non-hematogenous pigment. It is a brown-black pigment present normally in the hair, skin, retina, iris, and certain parts of the central nervous system. Argentaffin granules are found in carcinoid tumors. The argentaffin cell granules or melanin stain black. Nuclei stain pink-red. The cytoplasm stains pale pink.

For series [4], the system named is human living skin explants. Briefly: Pigmentation activity on human living skin explants with stripping. The format is cell-based. On the procedure:
The pigmentation activity of SLT-008 at two concentrations was evaluated on skin using human living skin explants with stripping.
Human skin explants of an average diameter of 11 mm (±1 mm) were prepared on an abdominoplasty from a person with a III phototype. The explants were kept alive in BEM culture medium (BIO-EC's Explants Medium) at 37° C. in a humid, 5%-CO2 atmosphere. The study was performed on human skin tissue, obtained from surgical residues in accord with the Declaration of Helsinki and the article L.1243-4 of the French Public Health Code.
On day 0, the explants of the batches “S” were stripped 5 times using scotch 3M to remove some stratum corneum layers to facilitate the penetration of the tested products. The excipient and the tested products were applied topically on the basis of 2 μl per explant (2 mg/cm^2) and spread using a small spatula on day 0 (D0, after the stripping), D1, D4, D6 and D8.
The culture medium was half renewed (1 ml per well) on D0, D1, D4, D6 and D8. On D0, D1, D4, D5, D6, D7 and D8, the culture media of the irradiated explants (TUV) were replaced by HBSS (Hank's Balanced Saline Solution; 1 ml per explant). Then, the explants of the “TUV” batch were irradiated using a UV simulator Vibert Lourmat RMX 3W with a dose of 2.25 J/cm2 of UVA corresponding to 0.5 MED (minimal erythemal dose) for a phototype II donor. […]

For series [5], the system named is apoptotic cells in the epidermis of human skin explants. In words: Stripping-induced apoptosis DNA protection study, TUNEL assay on skin explants. The format is cell-based. As to conditions: 0.9% in absolute ethanol, after tape stripping, Day 11, significant. The source says: The aim of this study was to perform complementary immunostaining of TUNEL (apoptotic cell marker).
Histological processing: 5-μm-thick sections were made using a Leica RM 2125 Minot-type microtome, and the sections were mounted on Superfrost® histological glass slides. The microscopical observations were realized using a Leica DMLB, an Olympus BX43 or BX63 microscope. Pictures were digitized with a numeric DP72 or DP74 Olympus camera with CellSens storing software.
The staining was semi-quantified by image analysis.
Image analysis method: The images analyses was performed on all the images of the selected batch using CellSens software. Stained surfaces comparisons
The stained surface percentage (Surf %) for the treatment is compared to the untreated condition=>S vs T; SP vs S.

In another series the test system is reconstructed epidermis. Briefly: Melanin content by chemical (solvable) extraction of reconstructed epidermis. As to conditions: applied at 1 and 0.1 μg/ml and more so at 0.3 μg/ml. The format is cell-based, human. As to the method: Using similar methods described previously in this Example, the experiments were repeated. At the end of these treatments, tissues (n=3) were removed from their inserts and immerged in a solvable extraction solution (Perkin Elmer-NJTSRN8010060) and heated at 80° C. for 1 h. The optical density of the supernatants was measured at 490 nm with a spectrophotometer (GloMax-Promega) and the melanin content was determined by comparison with a standard curve of synthetic melanin (Sigma-M8631)

Series [6] deals with reconstituted melanized epidermis. Briefly: Hematoxylin/eosin (H/E) morphology of reconstituted melanized epidermis. The format is cell-based, human. The conditions noted are these: 3 selected doses (0.3, 0.01, 0.0033 μg/ml) in culture medium. As to the method: Next, absence of toxicity of the three doses was evaluated in reconstituted melanized epidermis by hematoxylin/eosin (H/E) staining of histologic sections.
At the end of the treatments with the test compounds, 3 tissues per dose (n=3) were fixed in 4% formaldehyde, dehydrated and paraffin embedded. Sections of 6 μm of epidermis were stained with eosin and hematoxylin (H/E). Slides were mounted with specific medium and examined with a Leica DM2000 photomicroscope coupled to a digital camera (Zeiss).

Entries after “also recorded” stand apart in the source; their conditions may differ.

Chain of SIK3(h) (Q9Y2K2 whole entry): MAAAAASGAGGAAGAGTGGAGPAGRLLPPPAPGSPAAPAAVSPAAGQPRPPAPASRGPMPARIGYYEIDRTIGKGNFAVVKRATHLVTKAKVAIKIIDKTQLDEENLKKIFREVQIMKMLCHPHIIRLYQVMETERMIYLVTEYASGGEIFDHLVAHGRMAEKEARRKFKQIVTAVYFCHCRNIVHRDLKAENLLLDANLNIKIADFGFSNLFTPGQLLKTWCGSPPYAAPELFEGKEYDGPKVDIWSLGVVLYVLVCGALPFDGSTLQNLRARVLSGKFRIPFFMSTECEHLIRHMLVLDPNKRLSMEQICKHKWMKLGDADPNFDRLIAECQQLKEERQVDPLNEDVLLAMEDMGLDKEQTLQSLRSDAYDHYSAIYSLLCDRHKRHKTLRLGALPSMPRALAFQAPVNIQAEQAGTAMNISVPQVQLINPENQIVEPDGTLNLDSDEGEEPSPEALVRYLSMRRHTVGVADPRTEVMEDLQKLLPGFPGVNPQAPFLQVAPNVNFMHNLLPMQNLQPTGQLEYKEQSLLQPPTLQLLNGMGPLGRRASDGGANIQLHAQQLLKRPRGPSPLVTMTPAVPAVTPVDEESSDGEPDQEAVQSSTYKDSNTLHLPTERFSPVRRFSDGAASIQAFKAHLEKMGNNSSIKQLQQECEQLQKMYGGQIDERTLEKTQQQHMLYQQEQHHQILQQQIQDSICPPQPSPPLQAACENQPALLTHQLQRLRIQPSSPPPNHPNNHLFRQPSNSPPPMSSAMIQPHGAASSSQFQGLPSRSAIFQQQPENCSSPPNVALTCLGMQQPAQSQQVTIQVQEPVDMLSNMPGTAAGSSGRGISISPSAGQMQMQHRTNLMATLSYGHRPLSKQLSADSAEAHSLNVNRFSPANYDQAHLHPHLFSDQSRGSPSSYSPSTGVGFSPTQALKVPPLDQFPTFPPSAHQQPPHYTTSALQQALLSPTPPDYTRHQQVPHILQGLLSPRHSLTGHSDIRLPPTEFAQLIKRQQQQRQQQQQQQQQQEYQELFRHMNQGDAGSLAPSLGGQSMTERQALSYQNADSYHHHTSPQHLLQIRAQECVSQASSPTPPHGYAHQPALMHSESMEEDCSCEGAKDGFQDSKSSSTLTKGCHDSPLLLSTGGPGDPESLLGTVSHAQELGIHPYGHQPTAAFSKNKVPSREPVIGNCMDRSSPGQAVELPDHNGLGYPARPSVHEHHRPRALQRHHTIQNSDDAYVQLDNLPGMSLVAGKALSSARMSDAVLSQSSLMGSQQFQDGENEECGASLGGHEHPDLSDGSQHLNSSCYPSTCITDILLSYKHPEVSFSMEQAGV

Take `CC(C)Cn1c(=O)n(C)c(=O)c2[nH]cnc21` [IBMX, reference compound]: the “pigmentation (Fontana-Masson)” value in series [1] (positive controls: forskolin 3.33 μM, IBMX 150 μM, vs DMSO 0.05%) is listed as “increased”.

Turning to `Cc1cccc(C)c1N1Cc2cnc(Nc3ccc(N4CCN(C)CC4)cc3)nc2N(C23CC4CC(CC(C4)C2)C3)C1=O` [SLT-008, 1-((3s,5s,7s)-adamantan-1-yl)-3-(2,6-dimethylphenyl)-7-((4-(4-methylpiperazin-1-yl)phenyl)amino)-3,4-dihydropyrimido[4,5-d]pyrimidin-2(1H)-one], the IC50 – broadly, the midpoint of a concentration-inhibition curve – on SIK3(h) (Estimated IC50 Values, SIK3(h), ATP 45 μM) was over 20 nM; at SIK3(h) (SIK3) it was over 20 nM. Moreover, in series [2] (0.3 μg/ml, after 10 days of treatment, without reaching the set cytotoxic level), the “LDH release from tissues” value is “Slight and significant increase”. Also, the “tissue integrity (LDH release)” value in series [2] (application for 10 days) was “did not induce relevant alteration of the tissue integrity”. In addition, the “melanin pigmentation (Fontana Masson staining)” value in series [3] (1 mM in PEG/Ethanol/Transcutol) and in series [3] (3 mM in PEG/Ethanol/Transcutol) was “induced melanin pigment dots at the stratum lucidum level” throughout. In addition, the “melanin transfer to keratinocytes and nuclear capping” value in series [3] (3 mM) is “induced melanin transfer to keratinocytes and nuclear capping was observed”. In addition, the cell viability result in series [4] (0.5% and 0.9% topical, compared to the stripped batch) is on record as “no modification of cell viability”. Moreover, the melanin increase in series [4] (0.9% dose, topical, stripped explants, significant (p<0.1)) was 36%. The “decrease of apoptotic cell numbers (TUNEL stained surface)” value in series [5] worked out at 97%. The “melanin content by chemical extraction” value in the series on reconstructed epidermis is on record as “increased, with a dose effect”. Also, in series [6], the “morphologic alteration (H/E staining)” value was “no morphologic alteration”. The “melanin content (Fontana-Masson stained sections)” value is given as 125.6+/−15.4% in series [1] (0.011 μg/ml) and 129+/−5.7% in series [1] (0.3 μg/ml). Also, the “pigmentation / melanin content (Fontana-Masson)” value in series [1] (0.3 μg/ml vs DMSO 0.005%) is “significantly increased; also recorded: significant increase”.
